Assay results reported in article PMC3427785 (The Journal of organic chemistry, 2012).
Where two headings read alike, the source gives them in different places.

Assays:
cytomegalovirus (CMV) = assay: Anti-CMV activity in HEL cells as summarised in text; format: cell-based
HEL cells = assay: HEL cell growth inhibition; format: cell-based, human; settings: read-out: HEL cell effects, cell growth (IC50); concentration required to reduce cell growth by 50%
[1] = system: human ovarian cancer 1A9 cells; assay: Antiproliferative activity; format: cell-based; settings: read-out: GI50, 1A9; ovarian 1A9; four days
1A9-PTX10 = assay: Antiproliferative activity; format: cell-based, human
1A9-PTX22 = assay: Antiproliferative activity; format: cell-based, human; settings: read-out: GI50, PTX22; paclitaxel-resistant ovarian 1A9-PTX22; four days
[2] = system: colorectal carcinoma HCT116 cells; assay: Antiproliferative activity; format: cell-based, human; settings: read-out: GI50, HCT116, four days
[3] = system: HCT116 p53 knockout cells; format: cell-based, human; settings: read-out: GI50, p53KO, four days
[4] = system: vesicular stomatitis virus (VSV); format: cell-based; settings: read-out: anti-VSV activity; human cervix carcinoma HeLa cell cultures
[5] = system: vesicular stomatitis virus (VSV); format: cell-based; settings: human embryonic lung (HEL) fibroblast cell cultures
[6] = system: HeLa and HEL cell cultures
[7] = system: cytomegalovirus (CMV) AD-169 strain; assay: Anti-CMV activity; format: cell-based; settings: read-out: anti-CMV activity EC50, AD-169 strain
[8] = system: cytomegalovirus (CMV) Davis strain; assay: Anti-CMV activity; format: cell-based; settings: read-out: anti-CMV activity EC50, Davis strain
[9] = read-out: GI50, PTX10, paclitaxel-resistant ovarian 1A9-PTX10, four days

Row | Compound | activity against cytomegalovirus (in words) (cytomegalovirus (CMV); HEL cells) | IC50 (HEL cells) | GI50 [1] | GI50 (1A9-PTX10; [9]) | GI50 (1A9-PTX22) | GI50 [2] | GI50 [3] | minimum detectable morphology-altering (cytotoxic) concentration (MCC) (canine kidney MDCK) | minimum detectable morphology-altering (cytotoxic) concentration (MCC) (feline kidney CRFK) | minimum detectable morphology-altering (cytotoxic) concentration (MCC) (green monkey kidney Vero) | EC50 [4] | anti-VSV activity (in words) [5] | toxicity observed [6] | EC50 [7] | EC50 [8] | activity against cytomegalovirus (in words) (cytomegalovirus (CMV)) | GI50 (1A9-PTX10; Homo sapiens, 1A9/ptx-10, read-out: GI50, PTX10)
1 | 2-(4-n-Butyl-1,2,3-triazol-1H-yl)inosine [Compound 23] | somewhat more pronounced | > 250 µM | 37 µM | > 50 µM | 28.1 µM | > 50 µM | > 50 µM | – | – | – | – | – | – | – | – | – | –
2 | 2-[4-(4-Fluorophenyl)-1,2,3-triazol-1H-yl]inosine [Compound 24] | – | – | 34 µM | > 50 µM | 31 µM | > 50 µM | > 50 µM | – | – | – | – | – | – | – | – | – | –
3 | 2-[4-(4-Methoxyphenyl)-1,2,3-triazol-1H-yl]inosine [Compound 19] | – | > 230 µM | 29.5 µM | > 50 µM | 8.56 µM | > 50 µM | > 50 µM | – | – | – | – | – | – | – | – | – | –
4 | 2-[4-(4-Methylphenyl)-1,2,3-triazol-1H-yl]inosine [Compound 18] | marginal activity | ≥ 240 µM | 38 µM | > 50 µM | 13.4 µM | > 50 µM | > 50 µM | – | – | – | – | – | – | – | – | – | –
5 | 2-[4-(Ferrocenyl)-1,2,3-triazol-1H-yl]inosine [Compound 22] | marginal activity | 123 µM | 29.7 µM | > 50 µM | 12.9 µM | > 50 µM | > 50 µM | – | – | – | – | – | – | – | – | – | –
6 | 2-[4-(Hydroxymethyl)-1,2,3-triazol-1H-yl]inosine [Compound 20] | – | – | 20.4 µM | > 50 µM | 3.53 µM | > 50 µM | 42.6 µM | – | – | – | – | – | – | – | – | – | –
7 | 2-[4-(N-Phthalimidomethyl)-1,2,3-triazol-1H-yl]inosine [Compound 21] | – | > 200 µM | 6.32 µM | > 50 µM | 14.1 µM | > 50 µM | > 50 µM | – | – | – | – | – | – | – | – | – | –
8 | 6-(Morpholin-4-yl)-2-(4-phenyl-1,2,3-triazol-1H-yl)-9-(β-D-ribofuranosyl)purine [Compound 34] | – | – | 0.18 µM | 11.7 µM | 0.95 µM | 3.7 µM | 10.4 µM | 8.3 μM | 83 μM | 210 μM | – | – | – | – | – | – | –
9 | OC[C@H]1O[C@@H](n2cnc3c(O)nc(-n4cc(-c5ccccc5)nn4)nc32)[C@H](O)[C@@H]1O [Compound 17, 2-[4-(Phenyl)-1,2,3-triazol-1H-yl]inosine] | – | – | 22.8 µM | > 50 µM | 4.76 µM | > 50 µM | > 50 µM | – | – | – | 27 ± 2.4 µM | could not be confirmed | 100 to 240 µM | – | – | – | –
10 | OC[C@H]1O[C@@H](n2cnc3c(O)nc(-n4cc(-c5ccccc5)nn4)nc32)C[C@@H]1O [Compound 25, 2-[4-(Phenyl)-1,2,3-triazol-1H-yl]-2′-deoxyinosine] | – | 188 µM | 31 µM | > 50 µM | 14.8 µM | > 50 µM | > 50 µM | – | – | – | – | – | – | ≥ 250 µM | 158 µM | marginal activity | –
11 | COc1ccc(-c2cn(-c3nc(O)c4ncn([C@H]5C[C@H](O)[C@@H](CO)O5)c4n3)nn2)cc1 [Compound 26, 2-[4-(4-Methoxyphenyl)-1,2,3-triazol-1H-yl]-2′-deoxyinosine] | – | – | 37.2 µM | > 50 µM | 15.7 µM | > 50 µM | > 50 µM | – | – | – | – | – | – | > 240 µM | > 240 µM | – | –
12 | OCc1cn(-c2nc(O)c3ncn([C@H]4C[C@H](O)[C@@H](CO)O4)c3n2)nn1 [Compound 27, 2-[4-(Hydroxymethyl)-1,2,3-triazol-1H-yl]-2′-deoxyinosine] | – | – | 49.4 µM | > 50 µM | 32.9 µM | > 50 µM | > 50 µM | – | – | – | – | – | – | > 290 µM | > 290 µM | – | –
13 | O=C1c2ccccc2C(=O)N1Cc1cn(-c2nc(O)c3ncn([C@H]4C[C@H](O)[C@@H](CO)O4)c3n2)nn1 [Compound 28, 2-[4-(N-Phthalimidomethyl)-1,2,3-triazol-1H-yl]-2′-deoxyinosine] | – | – | 49.6 µM | > 50 µM | 32.2 µM | > 50 µM | > 50 µM | – | – | – | – | – | – | > 210 µM | > 210 µM | – | –
14 | OC[C@H]1O[C@@H](n2cnc3c(O)nc(-n4cc(-[c-]5cccc5)nn4)nc32)C[C@@H]1O.[Fe+2].c1cc[cH-]c1 [Compound 29, 2-[4-(Ferrocenyl)-1,2,3-triazol-1H-yl]-2′-deoxyinosine] | – | > 200 µM | 41.6 µM | > 50 µM | 18 µM | > 50 µM | > 50 µM | – | – | – | – | – | – | ≥ 200 µM | ≥ 200 µM | – | –
15 | CCCCc1cn(-c2nc(O)c3ncn([C@H]4C[C@H](O)[C@@H](CO)O4)c3n2)nn1 [Compound 30, 2-(4-n-Butyl-1,2,3-triazol-1H-yl)-2′-deoxyinosine] | – | – | 46.1 µM | > 50 µM | 26.9 µM | > 50 µM | > 50 µM | – | – | – | – | – | – | > 270 µM | > 270 µM | – | –
16 | OC[C@H]1O[C@@H](n2cnc3c(NCc4ccccc4)nc(-n4cc(-c5ccccc5)nn4)nc32)[C@H](O)[C@@H]1O [Compound 35, 6-(N-Benzyl)-2-[4-(phenyl)-1,2,3-triazol-1H-yl]adenosine] | – | – | 5 µM | > 50 µM | 24.5 µM | 43.6 µM | > 50 µM | – | – | – | – | – | – | – | – | – | –
17 | CC(=O)O[C@H]1C(=O)[C@@]2(C)[C@H]([C@H](OC(=O)c3ccccc3)[C@]3(O)C[C@H](OC(=O)[C@H](O)[C@@H](NC(=O)c4ccccc4)c4ccccc4)C(C)=C1C3(C)C)[C@]1(OC(C)=O)CO[C@@H]1C[C@@H]2O [paclitaxel, reference compound] | – | – | – | – | – | – | – | – | – | – | – | – | – | – | – | – | 0.079 µM
